From patent US20180057888A1, “KUB5/HERA AS A DETERMINANT OF SENSITIVITY TO DNA DAMAGE” (priority 2015, published 2018)
Read-outs that look alike come from different tables or passages of the source.

Columns and labels:
[1] = system: MDA-MB-231 shK-H cells; test: Colony formation assay (clonogenic survival), MDA-MB-231 shK-H; format: cell-based; details: for sensitivity of shK-H cells in colony forming assays: shK-H cells compared to parental or shSCR 231 cells, 24 hr treatment; for CC50: Homo sapiens
Description: (§1) Colony Formation Assay (CFA).
(§2) Cells were seeded out in appropriate dilutions and treated with the vehicle (0.01% DMSO) or PARP inhibitors at various concentrations for 24 hr. After treatment, cells were then cultured in drug-free medium for several days (at least six rounds of replication), depending on the proliferation rate of each cell line. Colonies were fixed with formaldehyde (4%) and stained with crystal violet. Colonies containing more than 50 normal-appearing cells were counted using a microscope. Each drug concentration was assessed in triplicate, and the experiments were repeated three times.

[2] = system: MDA-MB-231 shPARP1 cells; test: Colony formation assay (clonogenic survival), MDA-MB-231 shPARP1; format: cell-based
Description: as §1, §2

[3] = system: MDA-MB-231 breast cancer cell line; test: Colony formation assay (clonogenic survival), parental MDA-MB-231; format: cell-based
Description: as §1, §2

[4] = system: MDA-MB-231 shSCR cells; test: Colony formation assay (clonogenic survival), MDA-MB-231 shSCR; format: cell-based
Description: as §1, §2

[5] = system: shK-H 231 cells; test: TUNEL assay of apoptotic cell death; format: cell-based; details: Rucaparib 5 and 10 μM, 24 hr
Description: TUNEL Assay. To measure apoptotic cell death, log phase 231 shSCR or shK-H cells were treated with the vehicle (0.01% DMSO) or Rucaparib (5 and 10 μM) for 24 hr, and incubated in drug-free media for additional 72 hr in the cell incubator. The cells were then harvested and fixed in 70% ethanol overnight at −20° C. Equal amount of cells from each treatment were then subjected to terminal deoxynucleotidyltransferase dUTP nick end labeling (TUNEL) following the standard protocols from APO-Direct TUNEL Assay kit (BD Biosciences), which include positive and negative controls. Flow cytometry experiments were immediately performed using the BD LSRFortessa II cell analyzer, and data were analyzed using the BD FACSDiva software (www.bdbiosciences.com). All experiments were performed in triplicate.

[6] = molecular target: PARP1 (Homo sapiens, UniProt P09874); test: PARP activity assay (PAR formation, immunoblot of total protein lysates); format: biochemical; details: lysates of parental, shK-H, shPARP1, shSCR 231 cells
Chain of PARP1 (P09874 whole entry): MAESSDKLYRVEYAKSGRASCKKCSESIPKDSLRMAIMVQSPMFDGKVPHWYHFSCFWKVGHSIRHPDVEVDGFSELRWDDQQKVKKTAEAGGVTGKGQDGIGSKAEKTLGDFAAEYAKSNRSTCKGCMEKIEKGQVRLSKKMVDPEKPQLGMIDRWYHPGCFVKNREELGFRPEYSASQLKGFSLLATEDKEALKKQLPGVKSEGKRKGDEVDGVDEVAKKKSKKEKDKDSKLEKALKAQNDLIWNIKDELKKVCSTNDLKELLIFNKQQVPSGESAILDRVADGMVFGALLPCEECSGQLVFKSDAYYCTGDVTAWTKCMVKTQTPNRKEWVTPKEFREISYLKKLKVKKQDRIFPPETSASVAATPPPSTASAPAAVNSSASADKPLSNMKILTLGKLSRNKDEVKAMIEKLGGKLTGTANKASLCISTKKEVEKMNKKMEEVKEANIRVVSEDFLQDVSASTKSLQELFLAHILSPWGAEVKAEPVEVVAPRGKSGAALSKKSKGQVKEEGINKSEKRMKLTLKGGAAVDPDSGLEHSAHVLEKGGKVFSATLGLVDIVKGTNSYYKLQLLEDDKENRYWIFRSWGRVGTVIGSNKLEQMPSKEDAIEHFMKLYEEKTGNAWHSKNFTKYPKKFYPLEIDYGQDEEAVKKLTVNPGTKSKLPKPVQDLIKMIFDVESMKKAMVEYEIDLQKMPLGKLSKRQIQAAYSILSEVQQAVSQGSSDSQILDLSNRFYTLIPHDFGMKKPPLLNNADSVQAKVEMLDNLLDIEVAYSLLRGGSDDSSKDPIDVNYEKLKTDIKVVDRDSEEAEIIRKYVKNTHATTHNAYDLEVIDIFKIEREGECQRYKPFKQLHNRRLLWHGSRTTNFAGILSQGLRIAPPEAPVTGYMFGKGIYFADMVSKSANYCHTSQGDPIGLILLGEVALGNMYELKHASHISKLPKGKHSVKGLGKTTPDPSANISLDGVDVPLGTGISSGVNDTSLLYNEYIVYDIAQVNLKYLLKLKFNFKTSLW
Description: PARP Activity Assay. PARP activity was measured using immunoblot assay, which measured the amount of poly(ADP)-ribonucleotide (PAR) products synthesized using total protein lysates for PARP enzymatic activity in vitro. Briefly, the reaction containing total protein lysate (90 μg), and excess blunt-ended double-strand DNA oligonucleotide (26-mer) with internal synthetic abasic site (50 uM) in a reaction buffer containing Tris-HCl (10 mM, pH=7.4) and Mg^2+ (12 mM) was initiated by addition of excess β-NAD^+ (10 mM). The reaction was then stopped at various time-points by the addition of ice-cold concentrated AG014699/Rucaparib (250 μM), a known PARP1 inhibitor. Aliquots from each time points of the reaction were blotted onto a nitrocellulose membrane (BioRad dot blotter), and processed using standard Western blot assays. The density of each dots were quantified by ImageJ and plotted by GraphPad PRISM after normalization to controls (no NAD^+ addition).

[7] = system: shSCR 231 cells; test: Immunofluorescence of γ-H2AX and 53BP1 foci (DSB markers), shSCR cells; format: cell-based; details: shSCR 231 cells with wild-type K-H; Rucaparib 5 μM, 24 hr
Description: (§3) MDA-MB-231 shSCR or shK-H cells were plated in a six-well plate (˜200,000 each well containing a glass slide) overnight. The next day, cells were treated with DMSO (0.01%) or Rucaparib/AG014699 (5 μM) for 24 hr. After treatment, the media was gently replaced with drug-free media and harvested at various times (0, 1, 6, 24 hr). The slides were gently washed with phosphate-buffered solution (pH=7.4), and fixed with ice cold methanol:acetone solution (3:1) for 10 min at −20° C. The cells were then washed and rehydrated with PBS at room temperature (3×, 5 min intervals). Next, the cells were incubated in blocking solution (5% normal goat serum in PBS) for 60 min at RT. After blocking, the cells were then incubated in primary antibody (diluted in 5% normal goat serum in PBS) overnight at 4° C. The next day, the cells were washed three times with wash buffer (1% BSA in PBS; 5 min. interval between washes). […]
(§4) To elucidate the mechanism by which K-H depletion sensitizes cells to PARP inhibition, the inventors treated shSCR vs shK-H 231 cells with vehicle (0.01% DMSO) or Rucaparib (5 μM) for 24 hr and quantified DSB formation at various times post-treatment using γ-H2AX and/or 53BP1 as surrogate DSB markers (Lobrich et al., 2010; Anderson et al., 2001 and Bekker-Jensen et al., 2005) (representative images, FIG. 2A).

[8] = system: HCC202 breast cancer cell line; test: cells; format: cell-based; details: HCC202, read-out: AG014699 Mean LC50 (SEM)
Description: as §1, §2

[9] = system: HTB122 breast cancer cell line; test: cells; format: cell-based; details: read-out: AG014699 Mean LC50 (SEM)
Description: as §1, §2

[10] = system: MCF-7 breast cancer cell line; test: cells; format: cell-based; details: Homo sapiens, MCF7, read-out: AG014699 Mean LC50 (SEM)
Description: as §1, §2

[11] = system: HCC1569 breast cancer cell line; test: cells; format: cell-based; details: Homo sapiens, HCC1569, read-out: AG014699 Mean LC50 (SEM)
Description: as §1, §2

[12] = system: HTB24 breast cancer cell line; test: cells; format: cell-based; details: read-out: AG014699 Mean LC50 (SEM)
Description: as §1, §2

[13] = system: HCC1937 cells; test: Sulforhodamine B viability assay in HCC1937 cells; format: cell-based; details: Rucaparib 30 μM, 24 hr
Excerpt: FIGS. 8A-H. Pharmacological and genetic ablation of PARP1 activity is synthetic lethal with aberrant K-H reduction in BRCA-proficient breast cancers. (FIG. 8A) Western blot analysis of the parental BRCA-proficient 231 TNBC compared with 231 cells engineered to generate stable short hairpin RNA targeting non-specific gene control (shSCR), Kub5-Hera (shK-H) or PARP1 (shPARP1). (FIG. 8B) Chemical structures of PARP inhibitors used in this study. Left, AG014361; Right, AG014699 or Rucaparib. (C) Colony formation of specified cell lines treated with varying concentrations (0, 1, 2.5, 5, 10, 25 μM) of PARP inhibitor, AG014361, for 24 hr. Survival is expressed as mean percentage of colonies formed relative to vehicle-treated (0.01% DMSO) cells; error bars represent ±s.e.m. from three replicates. (FIG. 8D) Total cellular proteins from indicated 231 cells treated with vehicle (0.01% DMSO), AG014699/Rucaparib (5 μM), or staurosporine (STS, 2 μM) were subjected to Western blot analysis with indicated antibodies. (FIG. 8E) Western blot analysis of HCC1937 cell lines stably transfected with empty vector (lane 1), BRCA1 cDNA (lane 2), BRCA1 cDNA+ transient siSCR (lane 3), or BRCA1 cDNA+ transient siK-H (lane 4). […] Colorimetric intensity values were obtained using a plate reader, and normalized to control (0.01% DMSO). […]

[14] = system: 231 cells; test: Western blot analysis of pS1497-BRCA1 and CDK1 in 231 cells; format: cell-based; details: 24 hr; for CDK1 protein level: Rucaparib 5 μM and/or RO3066 0.5 and 1 μM
Description: FIGS. 9A-H. Loss of K-H compromises CDK1 expression/activity and reduces HR-mediated DSB repair. (FIG. 9[…]1 cells transiently transfected with indicated concentrations of siK-H for 48 hr. Total cellular proteins from each treatments were subjected to Western blot analysis using indicated antibodies. (FIG. 9B) Western blot analysis of CDK1 protein levels in 231 […] treated with siK-H (15 nM) and harvested at various times (24, 48, 72 hr). (FIG. 9C) Western blot analysis of CDK1 protein levels in 231 cells treated with siRNA to nonspecific gene control (siSCR) or specific genes as indicated (15 nM). Specific siRNA oligonucleotide sequences used in this study are listed in Table S3. […] (FIG. 9E) 231 cells treated with ionizing radiation (IR, 2 Gy) and harvested after 1 hr. […] Bottom, Endogenous phospho-[…] BRCA1 is higher in shSCR compared to shK-H. After IR treatment, […] BRCA1 phosphorylation is impaired in 231 shK-H but not in shSCR. (FIG. 9F) 231 cells treated with PARP1i Rucaparib (5 μM, 24 hr), CDK1 inhibitor RO3066 (0.5 and 1 μM, 24 hr) or combination [Rucaparib+RO3066]. Cells were harvested after 24 hr treatment. […] BRCA1 was activated ([…]-BRCA1) after Rucaparib treatment alone (lane 2) but not in combination with CDK1 inhibitor, RO3066 (lanes 5 and 6). […] (FIG. 90) Comparison of 231 […]) treated with Rucaparib (5 μM, 24 hr), CDK1 inhibitor RO3066 (1 μM, 24 hr) or combination [Rucaparib+RO3066]. Cells were harvested after 24 hr treatment. […] Endogenous […]-BRCA1 was higher in vehicle-treated shSCR (lane 1) compared to shK-H (lane 6). […] (FIG. 9H) Homologous recombination assay in MCF-7 cells using DR-GFP reporter system. Columns represent mean percentage of GFP-positive cells normalized to control (siSCR); error bars represent ±s.e.m. from duplicate experiments, *p<0.05, **p<0.01. See Table S3 for siRNA sequences. siK-H used was to 3'-UTR. Western Blot Analysis. Whole-cell lysates and nuclear extracts were prepared as previously described (Morales et al., 2014). See Supplementary Table S2 for a list of specific antibodies and dilutions used. Protein concentrations were determined by BCA Assay following manufacturer's instructions (Thermo Scientific). Normalized protein samples were separated on denaturing gradient gels (4-20% from BioRad) and were transferred to PVDF membranes for immunoblotting. After transfer, the membranes were first blocked with 1× Sigma Blocking Buffer for an hour at room temperature. The membranes were then incubated with the indicated primary antibodies diluted in 1× Sigma Blocking Buffer at 4° C. overnight. After this step, the membranes were washed with PBST (3×, 10 minutes each). HRP-conjugated secondary antibodies were diluted in 1× Sigma Blocking Buffer and incubated with the membranes at room temperature for 1 hr. […]

[15] = system: shK-H 231 cells; test: Immunofluorescence of γ-H2AX and 53BP1 foci (DSB markers), shK-H cells; format: cell-based; details: shK-H-depleted 231 cells, Rucaparib 5 μM, 24 hr
Description: as §3, §4

[16] = Homo sapiens, MDA-MB-231, read-out: AG014699 Mean LC50 (SEM)
[17] = Homo sapiens, MDA-MB-231, read-out: LC50 values

CN(C)Cc1ccc(-c2nc3cccc4c3n2CCNC4=O)cc1 [AG014361]
sensitivity of shK-H cells in colony forming assays [1]: more sensitive
additional lethality in PARP1-deficient cells ([2]; shPARP1 231 cells, dose-response curve coinciding with parental or shSCR cells): did not induce additional lethality
CC50 ([2]; shPARP1 231 cells, similar treatment conditions, read-out: LC50 values): ~20 µM
CC50 ([3]; parental 231 cells, similar treatment conditions, read-out: LC50 values): ~20 µM
CC50 ([4]; shSCR 231 cells, similar treatment conditions, read-out: LC50 values): ~20 µM

Cn1ncnc1[C@H]1c2n[nH]c(=O)c3cc(F)cc(c23)N[C@@H]1c1ccc(F)cc1 [Talazoparib]
sensitivity of shK-H cells in colony forming assays [1]: more sensitive

CNCc1ccc(-c2[nH]c3cc(F)cc4c3c2CCNC4=O)cc1 [AG014699, Rucaparib]
apoptosis (% TUNEL+) [5]: dose-dependent increase in apoptosis
CC50 ([1]; MDA-MB-231, read-out: AG014699 Mean LC50 (SEM)): 0.7 µM
CC50 ([1]; MDA-MB-231, read-out: lethality (LC50) in shK-H 231 cells): 0.66 µM
fold greater lethality than similar AG014361 exposures ([1]; shK-H 231 cells, Rucaparib vs AG014361): ~6 fold
Relative PARP enzymatic activity [PAR formation/Time (sec)] [6]: inhibited
CC50 [2, 16]: 17 µM
CC50 [2, 17]: ~20 µM
CC50 [3, 16]: 20 µM
CC50 [3, 17]: ~20 µM
levels of DSBs after exposure [7]: significantly lower levels of DSBs
CC50 [8]: 6.7 µM
CC50 [9]: 3.9 µM
CC50 [10]: 11 µM
CC50 [11]: 18 µM
CC50 [12]: 1.5 µM
lethality after siK-H depletion of BRCA1-corrected cells ([13]; BRCA1-corrected HCC1937 + siK-H): induced lethality
lethality after reconstitution with BRCA1 cDNA ([13]; BRCA-deficient HCC1937 + BRCA1 cDNA): abolished
CC50 [4, 16]: 18 µM
CC50 [4, 17]: ~20 µM
CDK1 protein level ([14]; 231 cells): no further reduction of CDK1
BRCA1 activation (pS1497-BRCA1) ([14]; 231 cells, Rucaparib alone 5 μM): activated
levels of co-localized γ-H2AX and 53BP1 foci (persistent DSBs) [15]: dramatically increased
DSB levels (53BP1 foci formation) ([15]; over time post-treatment): Dramatic increase in DSB levels

O=C1NC(=NCc2cccs2)S/C1=C\c1ccc2ncccc2c1 [RO3066]
CDK1 protein level ([14]; 231 cells): no further reduction of CDK1
pS1497-BRCA1 activation in combination with Rucaparib ([14]; 231 shSCR cells, Rucaparib 5 μM + RO3066 1 μM): inhibited
